{"source": "patent US12624018B1", "about": "“Inhibitors of RIPK2 and medical uses thereof” (Odyssey Therapeutics, Inc., priority 2022, dated 2026)", "data": [{"target": "T1, RIPK2 enzyme (Homo sapiens, UniProt O43353)", "T1 construct": "purchased Carna 09-128", "T1 sequence (O43353 1-299 limits assumed)": "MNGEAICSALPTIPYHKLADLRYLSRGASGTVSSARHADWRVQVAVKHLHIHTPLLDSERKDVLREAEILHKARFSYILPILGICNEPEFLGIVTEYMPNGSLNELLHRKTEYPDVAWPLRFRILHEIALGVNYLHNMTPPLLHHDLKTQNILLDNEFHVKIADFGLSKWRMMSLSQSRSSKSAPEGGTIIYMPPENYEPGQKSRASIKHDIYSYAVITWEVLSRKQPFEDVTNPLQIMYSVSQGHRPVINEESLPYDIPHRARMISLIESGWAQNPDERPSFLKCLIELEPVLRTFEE", "assay": "RIPK2 inhibition (ADP-Glo Kinase Assay)", "assay_type": "biochemical", "conditions": "RIPK2 5 nM, ATP 150 μM, MBP substrate, read-out: RIPK2 IC50", "summary_of_the_method": "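Swine MBP substrate; compound and 5 nM RIPK2 first mixed for 30 min at room temperature; buffer pH 7.5 HEPES 50 mM with 10 mM MgCl2, 2 mM DTT, 1 mM EGTA, Brij-35, BSA.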", "units": {"IC50": "nM"}, "values": [{"smiles": "Cc1cc(CC(=O)Nc2cnn(C(C)(C)C)c2)c(F)cc1Oc1ccnc2ccc(C(=O)NC3CC(C#N)C3)cc12", "note": "(single isomer, unassigned) [Compound 396, 4-(4-(2-((1-(tert-butyl)-1H-pyrazol-4-yl)amino)-2-oxoethyl)-5-fluoro-2-methyl-phenoxy)-N-(-3-cyano-cyclobutyl) quinoline-6-carboxamide]", "IC50": "< 2.5"}, {"smiles": "Cc1cc(CC(=O)Nc2cnn(C(C)(C)C)c2)ccc1Oc1ccnc2ccc(S(=O)(=O)C3CCNC3)cc12", "note": "(single isomer, unassigned) [Compound 201, N-(1-(tert-butyl)-1H-pyrazol-4-yl)-2-(3-methyl-4-((6-(pyrrolidin-3-ylsulfonyl)quinolin-4-yl)oxy)phenyl)acetamide]", "IC50": "< 2.5"}, {"smiles": "CC(C)(C)n1cc(NC(=O)Cc2ccc(Oc3ncnc4ccc(OC5COC5)cc34)cc2F)cn1", "note": "[Compound 49, N-(1-(tert-butyl)-1H-pyrazol-4-yl)-2-(2-fluoro-4-((6-(oxetan-3-yloxy)quinazolin-4-yl)oxy)phenyl) acetamide]", "IC50": 18.5}, {"smiles": "Cc1cc(CC(=O)Nc2cnn(C(C)(C)C)c2)c(F)cc1Oc1ccnc2ccc(C(=O)N3CC(F)C3)cc12", "note": "[Compound 370, N-(1-(tert-butyl)-1H-pyrazol-4-yl)-2-(2-fluoro-4-((6-(3-fluoro-azetidine-1-carbonyl)quinolin-4-yl)oxy)-5-methyl-phenyl) acetamide]", "IC50": "< 2.5"}, {"smiles": "Cc1cc(CC(=O)Nc2cnn(C(C)(C)C)c2)ccc1Oc1ccnc2ccc(OC3CCNCC3C)cc12", "note": "(racemic) [Compound 188, N-(1-(tert-butyl)-1H-pyrazol-4-yl)-2-(3-methyl-4-((6-((-3-methyl-piperidin-4-yl)oxy)quinolin-4-yl)oxy)phenyl) acetamide]", "IC50": "< 2.5"}, {"smiles": "Cc1cc(CC(=O)Nc2cnn(C(C)(C)C)c2)ccc1Oc1ccnc2ccc(N3CC(CO)OC3=O)cc12", "note": "(single isomer, unassigned) [Compound 317, N-(1-(tert-butyl)-1H-pyrazol-4-yl)-2-(4-((6-(5-(hydroxymethyl)-2-oxooxazolidin-3-yl)quinolin-4-yl)oxy)-3-methylphenyl) acetamide]", "IC50": "< 2.5"}, {"smiles": "COc1ccc2ncnc(Oc3cnc(CC(=O)Nc4cc(C(C)(C)C)ccn4)c(F)c3)c2c1", "note": "[Compound 29, N-(4-(tert-butyl)pyridin-2-yl)-2-(3-fluoro-5-((6-methoxy-quinazolin-4-yl)oxy)pyridin-2-yl)acetamide]", "IC50": 5.2}, {"smiles": "Cc1cc(CC(=O)Nc2noc(C(C)(C)C)n2)ccc1Oc1ncnc2ccc(OC3CCN(C)CC3)cc12", "note": "[Compound 184, N-(5-(tert-butyl)-1,2,4-oxadiazol-3-yl)-2-(3-methyl-4-((6-((1-methylpiperidin-4-yl)oxy)quinazolin-4-yl)oxy)phenyl) acetamide]", "IC50": 3}, {"smiles": "Cc1c(Oc2ccnc3ccc([S+](C)[O-])cc23)ccc(CC(=O)Nc2cnn(C(C)(C)C)c2)c1F", "note": "(single isomer, unassigned) [Compound 323, N-(1-(tert-butyl)-1H-pyrazol-4-yl)-2-(2-fluoro-3-methyl-4-((6-(methylsulfinyl)quinolin-4-yl)oxy)phenyl)acetamide]", "IC50": "< 2.5"}, {"smiles": "Cc1cc(CC(=O)Nc2cnn(C(C)(C)C)c2)ccc1Oc1ccnc2ccc(P3(=O)CCCC3)cc12", "note": "[Compound 181, N-(1-(tert-butyl)-1H-pyrazol-4-yl)-2-(3-methyl-4-((6-(1-oxidophospholan-1-yl)quinolin-4-yl)oxy)phenyl) acetamide]", "IC50": "< 2.5"}, {"smiles": "Cc1c(Oc2ccnc3ccc(C(=O)N4CC(N)C4)cc23)ccc(CC(=O)Nc2cnn(C(C)(C)C)c2)c1F", "note": "[Compound 349, 2-(4-((6-(3-amino-azetidine-1-carbonyl)quinolin-4-yl)oxy)-2-fluoro-3-methyl-phenyl)-N-(1-(tert-butyl)-1H-pyrazol-4-yl)acetamide]", "IC50": "< 2.5"}, {"smiles": "CC(C)(C)n1cc(NC(=O)Cc2ccc(Oc3ncnc4ccc(OCCO)cc34)cc2F)cn1", "note": "[Compound 16, N-(1-(tert-butyl)-1H-pyrazol-4-yl)-2-(2-fluoro-4-((6-(2-hydroxyethoxy)quinazolin-4-yl)oxy)phenyl)acetamide]", "IC50": 9.3}, {"smiles": "CC(C)(C)c1ccnc(NC(=O)Cc2ccc(Oc3ncnc4ccc(F)cc34)cc2F)c1", "note": "[Compound 21, N-(4-(tert-butyl)pyridin-2-yl)-2-(2-fluoro-4-((6-fluoroquinazolin-4-yl)oxy)phenyl) acetamide]", "IC50": 36.6}, {"smiles": "CN1CCC(Oc2ccc3nccc(Oc4ccc(CC(=O)Nc5cc(C(C)(C)C)[nH]n5)c(F)c4)c3c2)CC1", "note": "[Compound 136, N-(5-(tert-butyl)-1H-pyrazol-3-yl)-2-(2-fluoro-4-((6-((1-methyl-piperidin-4-yl)oxy)quinolin-4-yl)oxy)phenyl) acetamide]", "IC50": "< 2.5"}, {"smiles": "Cc1cc(CC(=O)Nc2cnn(C(C)(C)C)c2)c(F)cc1Oc1ccnc2ccc(C(=O)N3C[C@@H]4C[C@H]3CO4)cc12", "note": "[Compound 454, 2-(4-((6-((1S,4S)-2-oxa-5-azabicyclo[2.2.1]heptane-5-carbonyl)quinolin-4-yl)oxy)-2-fluoro-5-methylphenyl)-N-(1-(tert-butyl)-1H-pyrazol-4-yl)acetamide]", "IC50": "< 2.5"}, {"smiles": "COc1ccc2ncnc(Oc3ccc(CC(=O)Nc4noc(C(C)(C)C)n4)c(F)c3)c2c1", "note": "[Compound 23, N-(5-(tert-butyl)-1,2,4-oxadiazol-3-yl)-2-(2-fluoro-4-((6-methoxy-quinazolin-4-yl)oxy)phenyl) acetamide]", "IC50": 14.4}, {"smiles": "CC(C)(C)c1cc(NC(=O)Cc2ncc(Oc3ccnc4ccc(S(C)(=O)=O)cc34)cc2F)n[nH]1", "note": "[Compound 42, N-(5-(tert-butyl)-1H-pyrazol-3-yl)-2-(3-fluoro-5-((6-(methylsulfonyl)quinolin-4-yl)oxy)pyridin-2-yl)acetamide]", "IC50": 5.5}, {"smiles": "Cc1cc(CC(=O)Nc2cnn(C(C)(C)C)c2)ccc1Oc1ccnc2ccc(N3CCC(O)C3=O)cc12", "note": "(single isomer, unassigned) [Compound 326, N-(1-(tert-butyl)-1H-pyrazol-4-yl)-2-(4-((6-(3-hydroxy-2-oxopyrrolidin-1-yl)quinolin-4-yl)oxy)-3-methylphenyl) acetamide]", "IC50": "< 2.5"}, {"smiles": "Cc1cc(CC(=O)Nc2cnn(C(C)(C)C)c2)ccc1Oc1ccnc2ccc(O[C@H]3C[C@H](N)C3)cc12", "note": "[Compound 124, 2-(4-((6-((1r,3r)-3-aminocyclo-butoxy)quinolin-4-yl)oxy)-3-methyl-phenyl)-N-(1-(tert-butyl)-1H-pyrazol-4-yl)acetamide]", "IC50": "< 2.5"}, {"smiles": "Cc1cc(CC(=O)Nc2cnn(C(C)(C)C)c2)ccc1Oc1ccnc2ccc(S(=O)(=O)N(C)CCO)cc12", "note": "[Compound 262, N-(1-(tert-butyl)-1H-pyrazol-4-yl)-2-(4-((6-(N-(2-hydroxyethyl)-N-methylsulfamoyl)quinolin-4-yl)oxy)-3-methylphenyl)acetamide]", "IC50": "< 2.5"}, {"smiles": "Cc1cc(CC(=O)Nc2cnn(C(C)(C)C)c2)c(F)cc1Oc1ncnc2ccc(C(N)=O)cc12", "note": "[Compound 434, 4-(4-(2-((1-(tert-butyl)-1H-pyrazol-4-yl)amino)-2-oxoethyl)-5-fluoro-2-methylphenoxy)quinazoline-6-carboxamide]", "IC50": 3}, {"smiles": "Cc1c(Oc2ccnc3ccc(C(=O)N(C)CCO)cc23)ccc(CC(=O)Nc2cnn(C(C)(C)C)c2)c1F", "note": "[Compound 340, 4-(4-(2-((1-(tert-butyl)-1H-pyrazol-4-yl)amino)-2-oxoethyl)-3-fluoro-2-methyl-phenoxy)-N-(2-hydroxyethyl)-N-methyl-quinoline-6-carboxamide]", "IC50": "< 2.5"}, {"smiles": "Cc1cc(CC(=O)Nc2cnn(C(C)(C)C)c2)ccc1Oc1ccnc2ccc(S(C)(=N)=O)cc12", "note": "(centres unmarked) [Compound 76, N-(1-(tert-butyl)-1H-pyrazol-4-yl)-2-(3-methyl-4-((6-(S-methylsulfonimidoyl)quinolin-4-yl)oxy)phenyl) acetamide]", "IC50": "< 2.5"}, {"smiles": "COCCOc1ccc2ncnc(Oc3ccc(CC(=O)Nc4cnn(C(C)(C)C)c4)c(F)c3)c2c1", "note": "[Compound 50, N-(1-(tert-butyl)-1H-pyrazol-4-yl)-2-(2-fluoro-4-((6-(2-methoxy-ethoxy)quinazolin-4-yl)oxy)phenyl) acetamide]", "IC50": 15.4}, {"smiles": "CN1CCC(Oc2ccc3nccc(Oc4ccc(CC(=O)Nc5cnn(C(C)(C)C)c5)c(F)c4)c3c2)CC1", "note": "[Compound 79, N-(1-(tert-butyl)-1H-pyrazol-4-yl)-2-(2-fluoro-4-((6-((1-methyl-piperidin-4-yl)oxy)quinolin-4-yl)oxy)phenyl) acetamide]", "IC50": "< 2.5"}, {"smiles": "CN1CCC(Oc2ccc3nccc(Oc4ccc(CC(=O)Nc5cnn(C(C)(C)C)c5)cc4Cl)c3c2)CC1", "note": "[Compound 172, N-(1-(tert-butyl)-1H-pyrazol-4-yl)-2-(3-chloro-4-((6-((1-methyl-piperidin-4-yl)oxy)quinolin-4-yl)oxy)phenyl) acetamide]", "IC50": "< 2.5"}, {"smiles": "Cc1cc(CC(=O)Nc2cnn(C(C)(C)C)c2)ccc1Oc1ccnc2ccc(S(=O)(=O)C3CC(N)C3)cc12", "note": "(single isomer, unassigned) [Compound 282, 2-(4-((6-((-3-aminocyclobutyl)sulfonyl)quinolin-4-yl)oxy)-3-methylphenyl)-N-(1-(tert-butyl)-1H-pyrazol-4-yl)acetamide]", "IC50": "< 2.5"}, {"smiles": "Cc1cc(CC(=O)Nc2cnn(C(C)(C)C)c2)c(F)cc1Oc1ccnc2ccc(C(=O)N[C@H]3C[C@@H](O)C3)cc12", "note": "[Compound 394, 4-(4-(2-((1-(tert-butyl)-1H-pyrazol-4-yl)amino)-2-oxoethyl)-5-fluoro-2-methyl-phenoxy)-N-((1s,3s)-3-hydroxy-cyclobutyl) quinoline-6-carboxamide]", "IC50": "< 2.5"}, {"smiles": "Cc1cc(CC(=O)Nc2cnn(C(C)(C)C)c2)ccc1Oc1ncnc2ccc(OC3CCN(CC(F)F)CC3)cc12", "note": "[Compound 178, N-(1-(tert-butyl)-1H-pyrazol-4-yl)-2-(4-((6-((1-(2,2-difluoroethyl)piperidin-4-yl)oxy)quinazolin-4-yl)oxy)-3-methylphenyl) acetamide]", "IC50": 5}]}]}
